Test results taken from the kinase profiling compilation of Christmann-Franck et al. (2016).

Legend:
Assay in all cases: radiometric filter-binding kinase assay
ERBB4 (human) = ERBB4 (human) (UniProt Q15303)
PAK6 (human) = PAK6 (human) (UniProt Q9NQU5)
DYRK1A (human) = DYRK1A (human) (UniProt Q13627)
PHKG1 (human) = PHKG1 (human) (UniProt Q16816)
NEK6 (human) = NEK6 (human) (UniProt Q9HC98)
CHEK1 (human) = CHEK1 (human) (UniProt O14757)
CLK2 (human) = CLK2 (human) (UniProt P49760)
DCLK2 (human) = DCLK2 (human) (UniProt Q8N568)
MAPK15 (human) = MAPK15 (human) (UniProt Q8TD08)
MAP3K7 TAB1 (human) = MAP3K7 TAB1 (human) (UniProt Q15750+O43318)
[1] = test system: AKT2 (human), P31751 [S474D]
MAPK8 (human) = MAPK8 (human) (UniProt P45983)
[2] = molecular target: STK11 CAB39 STRADA (human) (UniProt Q9Y376+Q7RTN6+Q15831)
AURKA (human) = AURKA (human) (UniProt O14965)
Sequence of AURKA (human) (O14965 whole entry, looked up): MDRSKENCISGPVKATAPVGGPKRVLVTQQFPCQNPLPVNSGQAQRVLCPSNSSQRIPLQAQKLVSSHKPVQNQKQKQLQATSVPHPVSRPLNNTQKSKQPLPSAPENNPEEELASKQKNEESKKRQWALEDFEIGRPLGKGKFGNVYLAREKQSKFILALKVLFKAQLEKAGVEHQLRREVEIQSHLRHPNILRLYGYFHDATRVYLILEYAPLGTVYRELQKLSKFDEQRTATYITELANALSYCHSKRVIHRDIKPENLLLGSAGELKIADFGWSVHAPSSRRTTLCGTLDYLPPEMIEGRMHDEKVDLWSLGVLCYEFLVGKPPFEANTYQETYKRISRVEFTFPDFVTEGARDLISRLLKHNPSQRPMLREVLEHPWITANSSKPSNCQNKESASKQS

EPHB3 (human) = EPHB3 (human) (UniProt P54753)
PIM3 (human) = PIM3 (human) (UniProt Q86V86)
MAP3K11 (human) = MAP3K11 (human) (UniProt Q16584)
MINK1 (human) = MINK1 (human) (UniProt Q8N4C8)
Sequence of MINK1 (human) (Q8N4C8 whole entry, looked up): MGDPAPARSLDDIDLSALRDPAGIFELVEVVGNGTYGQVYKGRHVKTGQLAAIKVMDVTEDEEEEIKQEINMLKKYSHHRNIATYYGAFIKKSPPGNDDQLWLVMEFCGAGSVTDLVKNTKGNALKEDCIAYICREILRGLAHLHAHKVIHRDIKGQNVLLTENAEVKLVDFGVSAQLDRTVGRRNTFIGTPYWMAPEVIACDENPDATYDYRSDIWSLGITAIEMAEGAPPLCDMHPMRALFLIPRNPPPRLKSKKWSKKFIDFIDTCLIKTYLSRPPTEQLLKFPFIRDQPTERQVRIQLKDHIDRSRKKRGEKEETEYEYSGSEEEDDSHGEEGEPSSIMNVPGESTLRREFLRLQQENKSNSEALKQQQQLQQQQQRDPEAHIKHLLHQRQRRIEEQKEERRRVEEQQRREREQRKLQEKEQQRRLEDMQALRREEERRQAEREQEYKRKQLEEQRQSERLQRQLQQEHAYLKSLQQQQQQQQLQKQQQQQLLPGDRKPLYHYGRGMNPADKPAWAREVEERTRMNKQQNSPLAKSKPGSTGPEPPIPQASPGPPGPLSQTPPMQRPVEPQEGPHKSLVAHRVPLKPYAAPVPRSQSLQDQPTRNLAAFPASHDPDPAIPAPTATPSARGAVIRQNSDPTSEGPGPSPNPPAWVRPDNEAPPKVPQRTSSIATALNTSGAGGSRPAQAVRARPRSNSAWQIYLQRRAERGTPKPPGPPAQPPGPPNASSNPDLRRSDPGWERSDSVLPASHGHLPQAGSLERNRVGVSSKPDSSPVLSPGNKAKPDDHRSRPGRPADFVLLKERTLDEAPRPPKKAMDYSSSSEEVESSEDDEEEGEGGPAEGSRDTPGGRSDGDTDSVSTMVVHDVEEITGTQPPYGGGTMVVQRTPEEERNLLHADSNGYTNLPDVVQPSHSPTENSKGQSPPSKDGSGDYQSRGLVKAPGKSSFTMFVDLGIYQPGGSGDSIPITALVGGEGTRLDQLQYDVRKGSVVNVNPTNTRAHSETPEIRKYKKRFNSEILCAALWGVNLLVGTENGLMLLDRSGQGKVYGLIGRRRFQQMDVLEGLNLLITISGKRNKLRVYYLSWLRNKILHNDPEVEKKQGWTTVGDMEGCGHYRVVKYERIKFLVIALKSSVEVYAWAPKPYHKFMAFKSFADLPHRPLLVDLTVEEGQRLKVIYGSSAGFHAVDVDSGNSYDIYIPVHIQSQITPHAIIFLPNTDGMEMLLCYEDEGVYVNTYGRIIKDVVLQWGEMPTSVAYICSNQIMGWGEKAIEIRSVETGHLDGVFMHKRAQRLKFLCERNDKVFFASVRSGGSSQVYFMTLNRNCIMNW

NTRK1 (human) = NTRK1 (human) (UniProt P04629)
INSR (human) = INSR (human) (UniProt P06213)
GSK3B (human) = GSK3B (human) (UniProt P49841)
Sequence of GSK3B (human) (P49841 whole entry, looked up): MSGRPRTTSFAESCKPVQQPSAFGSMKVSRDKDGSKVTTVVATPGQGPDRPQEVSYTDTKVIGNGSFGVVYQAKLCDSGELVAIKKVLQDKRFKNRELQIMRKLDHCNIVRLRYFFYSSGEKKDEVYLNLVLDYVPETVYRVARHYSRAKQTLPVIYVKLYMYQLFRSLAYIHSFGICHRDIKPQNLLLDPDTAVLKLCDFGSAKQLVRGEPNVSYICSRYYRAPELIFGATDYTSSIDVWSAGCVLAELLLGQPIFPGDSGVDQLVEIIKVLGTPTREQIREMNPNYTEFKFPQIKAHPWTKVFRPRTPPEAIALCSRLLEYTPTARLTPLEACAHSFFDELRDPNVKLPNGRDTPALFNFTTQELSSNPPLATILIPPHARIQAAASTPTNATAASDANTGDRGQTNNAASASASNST

EPHB2 (human) = EPHB2 (human) (UniProt P29323)
MAPK1 (human) = MAPK1 (human) (UniProt P28482)
EPHA2 (human) = EPHA2 (human) (UniProt P29317)
MAPK13 (human) = MAPK13 (human) (UniProt O15264)
Sequence of MAPK13 (human) (O15264 whole entry, looked up): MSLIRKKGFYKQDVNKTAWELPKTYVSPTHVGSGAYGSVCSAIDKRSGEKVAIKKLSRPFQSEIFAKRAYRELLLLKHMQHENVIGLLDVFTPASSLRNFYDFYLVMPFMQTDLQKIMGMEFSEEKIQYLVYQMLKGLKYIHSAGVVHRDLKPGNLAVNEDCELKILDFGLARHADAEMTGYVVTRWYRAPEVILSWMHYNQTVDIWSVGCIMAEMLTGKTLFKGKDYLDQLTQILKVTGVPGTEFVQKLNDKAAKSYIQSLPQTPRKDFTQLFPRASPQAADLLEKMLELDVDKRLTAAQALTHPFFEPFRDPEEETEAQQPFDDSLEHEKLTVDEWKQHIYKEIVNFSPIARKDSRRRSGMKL

PRKACA (human) = PRKACA (human) (UniProt P17612)
EPHA4 (human) = EPHA4 (human) (UniProt P54764)
Sequence of EPHA4 (human) (P54764 whole entry, looked up): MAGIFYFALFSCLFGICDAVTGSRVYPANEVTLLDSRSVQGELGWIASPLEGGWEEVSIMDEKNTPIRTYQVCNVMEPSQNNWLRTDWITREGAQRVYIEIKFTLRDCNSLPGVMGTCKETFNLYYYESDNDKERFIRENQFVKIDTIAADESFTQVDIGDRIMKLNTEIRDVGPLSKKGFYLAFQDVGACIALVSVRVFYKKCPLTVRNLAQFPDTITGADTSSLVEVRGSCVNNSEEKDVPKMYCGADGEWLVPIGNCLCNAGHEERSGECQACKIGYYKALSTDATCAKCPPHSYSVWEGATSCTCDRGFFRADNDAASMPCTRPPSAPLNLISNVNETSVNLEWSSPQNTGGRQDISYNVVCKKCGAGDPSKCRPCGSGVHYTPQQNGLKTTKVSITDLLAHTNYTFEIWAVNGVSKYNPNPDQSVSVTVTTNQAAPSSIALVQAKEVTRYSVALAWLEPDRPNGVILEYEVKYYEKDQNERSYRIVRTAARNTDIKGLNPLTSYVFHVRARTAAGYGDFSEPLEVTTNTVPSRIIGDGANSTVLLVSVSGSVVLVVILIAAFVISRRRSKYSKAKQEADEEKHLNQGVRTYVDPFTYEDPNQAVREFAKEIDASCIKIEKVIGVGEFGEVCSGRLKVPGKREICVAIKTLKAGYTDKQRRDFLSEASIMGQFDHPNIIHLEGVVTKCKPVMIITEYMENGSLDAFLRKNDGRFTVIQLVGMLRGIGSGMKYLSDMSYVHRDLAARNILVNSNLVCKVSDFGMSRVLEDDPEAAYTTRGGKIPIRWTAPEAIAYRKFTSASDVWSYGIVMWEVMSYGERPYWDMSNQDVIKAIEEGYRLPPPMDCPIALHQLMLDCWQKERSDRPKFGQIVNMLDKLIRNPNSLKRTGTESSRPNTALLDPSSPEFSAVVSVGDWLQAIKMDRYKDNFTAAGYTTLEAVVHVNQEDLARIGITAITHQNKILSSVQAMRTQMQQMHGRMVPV

PAK4 (human) = PAK4 (human) (UniProt O96013)
PIM2 (human) = PIM2 (human) (UniProt Q9P1W9)
Sequence of PIM2 (human) (Q9P1W9 whole entry, looked up): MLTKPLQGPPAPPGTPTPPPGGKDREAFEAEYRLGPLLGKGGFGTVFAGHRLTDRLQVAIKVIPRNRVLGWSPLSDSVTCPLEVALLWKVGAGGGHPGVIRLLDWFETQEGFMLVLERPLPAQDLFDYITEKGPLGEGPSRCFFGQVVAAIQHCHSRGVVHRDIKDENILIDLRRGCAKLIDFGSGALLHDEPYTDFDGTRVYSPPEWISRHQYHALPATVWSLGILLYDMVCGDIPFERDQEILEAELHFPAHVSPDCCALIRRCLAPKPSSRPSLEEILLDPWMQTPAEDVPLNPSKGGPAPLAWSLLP

DYRK3 (human) = DYRK3 (human) (UniProt O43781)
MAPKAPK5 (human) = MAPKAPK5 (human) (UniProt Q8IW41)
MAPK9 (human) = MAPK9 (human) (UniProt P45984)
Sequence of MAPK9 (human) (P45984 whole entry, looked up): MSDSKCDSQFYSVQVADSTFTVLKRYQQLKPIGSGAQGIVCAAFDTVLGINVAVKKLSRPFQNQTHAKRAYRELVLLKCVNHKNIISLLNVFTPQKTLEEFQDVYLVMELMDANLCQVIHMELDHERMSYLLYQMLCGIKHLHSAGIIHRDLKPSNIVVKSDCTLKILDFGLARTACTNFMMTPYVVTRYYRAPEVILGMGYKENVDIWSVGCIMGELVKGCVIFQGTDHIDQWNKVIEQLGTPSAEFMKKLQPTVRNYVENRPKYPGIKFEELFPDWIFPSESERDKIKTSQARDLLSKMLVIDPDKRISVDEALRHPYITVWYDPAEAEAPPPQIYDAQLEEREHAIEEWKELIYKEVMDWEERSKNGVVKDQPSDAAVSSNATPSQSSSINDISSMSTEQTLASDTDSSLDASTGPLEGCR

SYK (human) = SYK (human) (UniProt P43405)

Sequence of CLK2 (human) (P49760 whole entry, looked up): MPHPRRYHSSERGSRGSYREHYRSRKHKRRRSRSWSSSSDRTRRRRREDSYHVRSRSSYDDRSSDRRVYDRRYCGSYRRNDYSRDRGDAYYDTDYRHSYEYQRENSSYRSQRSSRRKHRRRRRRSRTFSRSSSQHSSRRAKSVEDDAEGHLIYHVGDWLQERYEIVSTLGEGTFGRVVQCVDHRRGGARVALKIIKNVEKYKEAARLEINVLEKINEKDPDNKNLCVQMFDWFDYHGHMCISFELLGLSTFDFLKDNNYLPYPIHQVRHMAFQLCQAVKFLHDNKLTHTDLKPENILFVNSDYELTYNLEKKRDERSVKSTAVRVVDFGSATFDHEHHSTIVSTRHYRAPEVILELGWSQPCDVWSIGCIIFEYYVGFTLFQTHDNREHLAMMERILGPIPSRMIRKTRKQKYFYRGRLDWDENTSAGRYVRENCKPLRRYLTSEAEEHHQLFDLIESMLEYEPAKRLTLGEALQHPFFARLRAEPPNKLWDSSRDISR

`COc1cc(C(=O)N2CCC(N3CCN(C)CC3)CC2)ccc1Nc1ncc2c(n1)N(C)c1ccccc1C(=O)N2C` gave a residual activity (ERBB4 (human); compound 1.0 µM) of 68%, a residual activity (ERBB4 (human); compound 10.0 µM) of 72% and a residual activity (PAK6 (human); compound 1.0 µM) of 94%. It also gave a residual activity (PAK6 (human); compound 10.0 µM) of 89%, a residual activity (DYRK1A (human); compound 1.0 µM) of 87% and a residual activity (DYRK1A (human); compound 10.0 µM) of 95%. For the same compound, the residual activity (PHKG1 (human); compound 1.0 µM) was 98%, the residual activity (PHKG1 (human); compound 10.0 µM) was 59% and the residual activity (NEK6 (human); compound 1.0 µM) was 90%. It also gave a residual activity (NEK6 (human); compound 10.0 µM) of 110%, a residual activity (CHEK1 (human); compound 1.0 µM) of 82% and a residual activity (CHEK1 (human); compound 10.0 µM) of 96%. The residual activity (CLK2 (human); compound 1.0 µM) was 76%, the residual activity (CLK2 (human); compound 10.0 µM) was 69% and the IC50 (DCLK2 (human)) was 210 nM. It also gave a residual activity (MAPK15 (human); compound 1.0 µM) of 86%, a residual activity (MAPK15 (human); compound 10.0 µM) of 104% and a residual activity (MAP3K7 TAB1 (human); compound 1.0 µM) of 85%. For the same compound, the residual activity (MAP3K7 TAB1 (human); compound 10.0 µM) was 82%, the residual activity ([1]; compound 1.0 µM) was 93% and the residual activity ([1]; compound 10.0 µM) was 79%. For the same compound, the residual activity (MAPK8 (human); compound 1.0 µM) was 85%, the residual activity (MAPK8 (human); compound 10.0 µM) was 96% and the residual activity ([2]; compound 1.0 µM) was 78%. For the same compound, the residual activity ([2]; compound 10.0 µM) was 78%, the IC50 (AURKA (human)) was 1200 nM and the residual activity (AURKA (human); compound 1.0 µM) was 33%. The residual activity (AURKA (human); compound 10.0 µM) was 5%, the residual activity (EPHB3 (human); compound 1.0 µM) was 71% and the residual activity (EPHB3 (human); compound 10.0 µM) was 71%. It also gave a residual activity (PIM3 (human); compound 1.0 µM) of 97%, a residual activity (PIM3 (human); compound 10.0 µM) of 76% and a residual activity (MAP3K11 (human); compound 1.0 µM) of 94%. The residual activity (MAP3K11 (human); compound 10.0 µM) was 84%, the residual activity (MINK1 (human); compound 1.0 µM) was 99% and the residual activity (MINK1 (human); compound 10.0 µM) was 108%. For the same compound, the residual activity (NTRK1 (human); compound 1.0 µM) was 79%, the residual activity (NTRK1 (human); compound 10.0 µM) was 32% and the residual activity (INSR (human); compound 1.0 µM) was 104%. The residual activity (INSR (human); compound 10.0 µM) was 103%, the residual activity (GSK3B (human); compound 1.0 µM) was 90% and the residual activity (GSK3B (human); compound 10.0 µM) was 95%. For the same compound, the residual activity (EPHB2 (human); compound 1.0 µM) was 96%, the residual activity (EPHB2 (human); compound 10.0 µM) was 93% and the residual activity (MAPK1 (human); compound 1.0 µM) was 83%. For the same compound, the residual activity (MAPK1 (human); compound 10.0 µM) was 85%, the residual activity (EPHA2 (human); compound 1.0 µM) was 98% and the residual activity (EPHA2 (human); compound 10.0 µM) was 91%. For the same compound, the residual activity (MAPK13 (human); compound 1.0 µM) was 102%, the residual activity (MAPK13 (human); compound 10.0 µM) was 106% and the residual activity (PRKACA (human); compound 1.0 µM) was 79%. The residual activity (PRKACA (human); compound 10.0 µM) was 93%, the residual activity (EPHA4 (human); compound 1.0 µM) was 88% and the residual activity (EPHA4 (human); compound 10.0 µM) was 94%. It also gave a residual activity (PAK4 (human); compound 1.0 µM) of 94%, a residual activity (PAK4 (human); compound 10.0 µM) of 108% and a residual activity (PIM2 (human); compound 1.0 µM) of 87%. It also gave a residual activity (PIM2 (human); compound 10.0 µM) of 97%, a residual activity (DYRK3 (human); compound 1.0 µM) of 95% and a residual activity (DYRK3 (human); compound 10.0 µM) of 96%. The residual activity (MAPKAPK5 (human); compound 1.0 µM) was 102%, the residual activity (MAPKAPK5 (human); compound 10.0 µM) was 107% and the residual activity (MAPK9 (human); compound 1.0 µM) was 79%. It also gave a residual activity (MAPK9 (human); compound 10.0 µM) of 98%, a residual activity (SYK (human); compound 1.0 µM) of 71% and a residual activity (SYK (human); compound 10.0 µM) of 63%.
